# Reference: US10004730B2, “Small molecules targeting androgen receptor nuclear localization and/or level in prostate cancer” (University of Pittsburgh-Of the Commonwealth System of …, priority 2011, dated 2018)
# Assays:
# [1] = test system: castration resistant 22Rv1 xenograft tumors; experiment: 22Rv1 xenograft tumors in castrated SCID mice; format: in vivo; conditions: i.p. 25 mg/kg every other day
# Protocol: FIGS. 15A-B. SID 3712502 inhibited the growth of castration resistant 22Rv1 xenograft tumors (FIG. 15A), but not PC3 tumors (FIG. 15B). 22Rv1 or PC3 tumors were established by s.c. injection of 1×10^6 cells into young adult male SCID mice. SCID mice were castrated and randomized when tumor volume reached ˜400 uL. Mice received i.p. delivery of SID 3712502 (25 mg/kg body weight) or vehicle control EPL every other day, beginning 4 days after castration (injection indicated by arrows). Each group consisted of 10 mice for 22Rv1, and 8 mice for PC3 tumors. Tumor volumes were measured using micro-calipers and calculated using the formula (length×width^2)/2. Black and red lines represent data from the animals treated with vehicle (C) and SID 3712502 (SID), respectively. P value was calculated using a two-way ANOVA with the Bonferrroni correction (GraphPad). Error bars=SEM. **p<0.01.
# GFP-GR = biological target: T1, GFP-GR (Homo sapiens, UniProt P04150); experiment: GFP-GR nuclear localization in transfected C4-2 cells; format: cell-based; conditions: co-treated with 0.5 μM Dexamethasone, 24 hours
# T1 construct: expressed in transfected cells; host or cells: C4-2
# Protocol: FIG. 7. The effect of SID 14730725 and SID 3712502 on nuclear localization of GFP-ER (Top panel) and GFP-GR (Bottom panel) in C4-2 cells. C4-2 cells were transfected with GFP-ER or GFP-GR overnight. The following day the cells were treated with different concentrations (uM) of the small molecules. The cells transfected with GFP-GR were co-treated with 0.5 μM Dexamethasone. Cells were imaged 24 hours after the treatment with the small molecules.
# GFP-AR = biological target: T2, GFP-AR (Homo sapiens, UniProt P10275); experiment: Localization of transiently transfected GFP-AR by fluorescence microscopy; format: cell-based; conditions: transfected C4-2 cells, complete RPMI with 10% FBS, overnight treatment
# T2 construct: expressed in transfected cells; also PC3 and LNCaP (transient)
# T2 sequence (P10275 1-920): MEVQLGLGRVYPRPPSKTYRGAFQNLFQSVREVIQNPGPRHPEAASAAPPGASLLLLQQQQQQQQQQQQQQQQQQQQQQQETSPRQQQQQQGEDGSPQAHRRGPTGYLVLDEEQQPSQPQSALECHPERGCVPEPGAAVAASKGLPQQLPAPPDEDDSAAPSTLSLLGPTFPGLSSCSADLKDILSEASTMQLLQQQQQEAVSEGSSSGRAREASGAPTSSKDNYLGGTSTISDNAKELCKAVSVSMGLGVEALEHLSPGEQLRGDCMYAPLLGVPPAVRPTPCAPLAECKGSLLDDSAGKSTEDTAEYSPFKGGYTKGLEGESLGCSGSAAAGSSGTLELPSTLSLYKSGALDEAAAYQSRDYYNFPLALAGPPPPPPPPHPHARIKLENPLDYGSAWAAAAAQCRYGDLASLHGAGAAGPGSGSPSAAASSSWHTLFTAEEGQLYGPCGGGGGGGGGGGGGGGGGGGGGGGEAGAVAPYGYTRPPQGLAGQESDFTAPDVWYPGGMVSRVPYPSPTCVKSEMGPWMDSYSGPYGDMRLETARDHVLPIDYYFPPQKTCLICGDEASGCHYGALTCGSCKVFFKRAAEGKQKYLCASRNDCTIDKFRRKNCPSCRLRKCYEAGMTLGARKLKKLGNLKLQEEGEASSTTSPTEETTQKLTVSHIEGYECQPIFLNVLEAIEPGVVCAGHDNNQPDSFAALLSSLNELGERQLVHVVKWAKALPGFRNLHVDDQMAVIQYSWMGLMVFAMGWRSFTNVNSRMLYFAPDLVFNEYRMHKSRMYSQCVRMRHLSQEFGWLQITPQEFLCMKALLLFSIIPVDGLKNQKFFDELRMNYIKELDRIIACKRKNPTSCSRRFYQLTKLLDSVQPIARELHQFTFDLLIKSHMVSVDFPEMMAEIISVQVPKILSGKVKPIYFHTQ
# Protocol: FIGS. 2A and 2B. Localization of GFP-AR in AR-negative PC3, androgen-sensitive LNCaP, and CRPC C4-2 cells. […] PC3, LNCaP, and C4-2 cells were transfected with GFP-AR and localization was assessed in ligand-free conditions or in the presence of mibolerone by fluorescence microscopy within 24 hours of transfection. The results in FIG. 2B are from five transfections for each cell line in the absence of androgen. At least 50 cells were counted after each transfection. Error bars represent ±SEM.
# FIGS. 3A and 3B. […] FIG. 3A. […] Localization was assessed by fluorescence microscopy 4 hours after treatment. FIG. 3B.
# FIGS. 6A, 6B, 6C and 6D. FIG. 6A. […] FIG. 6B. […] C4-2 cells were transfected with GFP-AR and subcellular localization of GFP-AR was determined after overnight treatment using fluorescent microscopy. FIG. 6C. Quantitative analysis of results in FIG. 6B. […] FIG. 6D. […] Endogenous AR was detected by immunofluorescent staining using AR antibody N-20 (Santa Cruz Biotechnology). Nuclei were stained with Hoechst.
# A prerequisite for AR transcriptional activity is its nuclear localization. To determine whether the subcellular localization of AR was altered during the progression to castration-resistance, AR-negative PC3 prostate cancer cells, androgen-sensitive LNCaP cells and castration-resistant C4-2 cells were transfected with AR tagged to green fluorescent protein (GFP) and localization was assessed by fluorescence microscopy in hormone-free conditions.
# Hsp90 plays an important role in ligand-induced AR nuclear translocation. […] To determine if the effect of hsp90 inhibition on endogenous AR in C4-2 cells was similar to its effect on transfected GFP-AR, immunofluorescence experiments were performed.
# C4-2 cells = experiment: Cell survival, crystal violet staining, C4-2; format: cell-based; conditions: 48 hrs
# Protocol: FIGS. 8A and 8B. Effect of SID 14730725 and SID 3712502 on survival of PC3 (FIG. 8A) and C4-2 cells (FIG. 8B). PC3 or C4-2 cells were plated in 12-well plates at 2,500 cell per well in RPMI 1640 complete medium. After 24 hrs, the cells were treated with SID 14730725 or SID 3712502 at the indicated concentrations for 48 hrs. The wells were washed with PBS thrice and fixed in 0.5% crystal Violet in methanol. C=control; treated with vehicle DMSO.
# T1 sequence (P04150 whole entry): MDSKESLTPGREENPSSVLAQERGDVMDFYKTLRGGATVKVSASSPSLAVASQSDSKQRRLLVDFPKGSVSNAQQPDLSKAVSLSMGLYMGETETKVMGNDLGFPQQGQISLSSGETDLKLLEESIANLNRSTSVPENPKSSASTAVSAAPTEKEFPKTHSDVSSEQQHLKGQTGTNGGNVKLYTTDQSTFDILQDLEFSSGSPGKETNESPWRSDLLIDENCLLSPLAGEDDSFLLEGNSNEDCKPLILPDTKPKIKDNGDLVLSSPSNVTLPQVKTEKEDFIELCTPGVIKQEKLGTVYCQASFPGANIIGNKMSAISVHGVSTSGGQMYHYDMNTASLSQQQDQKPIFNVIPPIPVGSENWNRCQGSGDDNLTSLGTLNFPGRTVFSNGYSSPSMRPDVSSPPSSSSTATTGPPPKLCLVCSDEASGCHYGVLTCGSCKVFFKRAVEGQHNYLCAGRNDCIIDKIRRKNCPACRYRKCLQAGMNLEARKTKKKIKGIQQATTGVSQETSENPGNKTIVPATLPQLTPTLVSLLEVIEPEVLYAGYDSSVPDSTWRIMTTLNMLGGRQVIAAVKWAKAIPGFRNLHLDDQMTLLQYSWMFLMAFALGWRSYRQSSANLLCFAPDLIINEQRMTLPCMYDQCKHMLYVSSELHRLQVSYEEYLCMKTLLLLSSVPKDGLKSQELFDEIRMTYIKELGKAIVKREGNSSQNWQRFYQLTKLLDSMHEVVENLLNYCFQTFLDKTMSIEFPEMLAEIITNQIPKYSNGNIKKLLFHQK
compound,measurement,setting,value
"Cc1cccc(N2CCN(C(=O)CSCc3c(C)noc3C)CC2)c1C [SID 3712502, 2-[(3,5-dimethyl-1,2-oxazol-4-yl)methylsulfanyl]-1-[4-(2,3-dimethylphenyl)piperazin-1-yl]ethanone]",growth of 22Rv1 xenograft tumor,[1],significantly inhibited the growth
same,localization of GFP-GR,GFP-GR,no effect
same,GFP-AR nuclear localization,GFP-AR,effectively inhibited
same,cytotoxicity,C4-2 cells,little or no cytotoxicity
